Active and inactive are the calls of the source. Rule as the data show it, for most assays here: actives have a measured Kd and inactives only a lower limit.

Assay [1] has as its target T1, Phosphorylase b kinase gamma catalytic chain, liver/testis isoform (Homo sapiens, UniProt P15735).
T1 sequence (P15735 whole entry): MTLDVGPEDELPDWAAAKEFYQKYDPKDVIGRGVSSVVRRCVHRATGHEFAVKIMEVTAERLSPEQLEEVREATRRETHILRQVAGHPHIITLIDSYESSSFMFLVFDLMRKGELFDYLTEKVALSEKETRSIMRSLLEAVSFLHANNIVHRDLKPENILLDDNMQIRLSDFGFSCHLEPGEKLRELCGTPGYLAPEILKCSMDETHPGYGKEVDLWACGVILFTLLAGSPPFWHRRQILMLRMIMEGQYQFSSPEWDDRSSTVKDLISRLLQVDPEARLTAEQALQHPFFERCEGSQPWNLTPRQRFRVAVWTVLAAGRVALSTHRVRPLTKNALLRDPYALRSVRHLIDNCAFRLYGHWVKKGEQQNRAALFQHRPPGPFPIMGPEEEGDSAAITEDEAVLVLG

The target of assay [2] is T2, NUAK family SNF1-like kinase 2 (Homo sapiens, UniProt Q9H093).
T2 sequence (Q9H093 whole entry): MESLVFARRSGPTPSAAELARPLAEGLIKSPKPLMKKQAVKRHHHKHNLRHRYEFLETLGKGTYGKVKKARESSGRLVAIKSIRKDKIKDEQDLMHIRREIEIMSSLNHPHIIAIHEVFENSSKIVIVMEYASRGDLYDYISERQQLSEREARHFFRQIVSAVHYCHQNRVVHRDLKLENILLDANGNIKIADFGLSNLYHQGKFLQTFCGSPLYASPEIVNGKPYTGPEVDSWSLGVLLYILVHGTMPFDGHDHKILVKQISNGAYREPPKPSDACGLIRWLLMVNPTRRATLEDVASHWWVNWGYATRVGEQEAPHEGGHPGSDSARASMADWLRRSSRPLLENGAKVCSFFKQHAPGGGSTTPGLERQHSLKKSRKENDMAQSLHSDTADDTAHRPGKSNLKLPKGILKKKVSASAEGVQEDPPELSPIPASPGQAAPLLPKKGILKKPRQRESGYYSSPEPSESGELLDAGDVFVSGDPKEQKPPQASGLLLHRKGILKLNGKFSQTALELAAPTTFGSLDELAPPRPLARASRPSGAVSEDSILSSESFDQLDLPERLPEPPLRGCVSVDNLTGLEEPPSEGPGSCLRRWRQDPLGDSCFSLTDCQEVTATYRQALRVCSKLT

The target in assay [3] is T3, Non-receptor tyrosine-protein kinase TNK1 (Homo sapiens, UniProt Q13470).
T3 sequence (Q13470 whole entry): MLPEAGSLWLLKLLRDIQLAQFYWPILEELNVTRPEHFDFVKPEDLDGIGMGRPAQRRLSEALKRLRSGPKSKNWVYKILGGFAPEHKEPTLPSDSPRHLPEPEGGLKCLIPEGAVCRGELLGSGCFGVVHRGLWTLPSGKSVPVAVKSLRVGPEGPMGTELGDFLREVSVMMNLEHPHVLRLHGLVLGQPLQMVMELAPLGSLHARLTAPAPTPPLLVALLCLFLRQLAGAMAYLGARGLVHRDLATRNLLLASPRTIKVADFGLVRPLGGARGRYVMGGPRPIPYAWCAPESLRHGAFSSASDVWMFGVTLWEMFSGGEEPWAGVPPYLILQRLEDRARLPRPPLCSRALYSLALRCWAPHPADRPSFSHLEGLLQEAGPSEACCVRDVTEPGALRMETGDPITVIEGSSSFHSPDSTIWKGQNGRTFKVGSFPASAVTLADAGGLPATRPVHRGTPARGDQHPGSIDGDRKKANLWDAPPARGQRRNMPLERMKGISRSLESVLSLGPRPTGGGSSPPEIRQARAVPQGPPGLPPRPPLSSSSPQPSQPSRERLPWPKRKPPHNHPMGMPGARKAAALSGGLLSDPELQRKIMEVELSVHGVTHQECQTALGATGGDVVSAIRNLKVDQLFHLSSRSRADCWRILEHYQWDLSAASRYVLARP

Assay [4] concerns the target Casein kinase I isoform gamma-1 (Homo sapiens, UniProt Q9HCP0).
For assay [5], the target named is ATP-dependent RNA helicase DDX3X (Homo sapiens, UniProt O00571).
Assay [6] deals with T4, General transcription and DNA repair factor IIH helicase subunit XPD (Homo sapiens, UniProt P18074).
T4 sequence (P18074 whole entry): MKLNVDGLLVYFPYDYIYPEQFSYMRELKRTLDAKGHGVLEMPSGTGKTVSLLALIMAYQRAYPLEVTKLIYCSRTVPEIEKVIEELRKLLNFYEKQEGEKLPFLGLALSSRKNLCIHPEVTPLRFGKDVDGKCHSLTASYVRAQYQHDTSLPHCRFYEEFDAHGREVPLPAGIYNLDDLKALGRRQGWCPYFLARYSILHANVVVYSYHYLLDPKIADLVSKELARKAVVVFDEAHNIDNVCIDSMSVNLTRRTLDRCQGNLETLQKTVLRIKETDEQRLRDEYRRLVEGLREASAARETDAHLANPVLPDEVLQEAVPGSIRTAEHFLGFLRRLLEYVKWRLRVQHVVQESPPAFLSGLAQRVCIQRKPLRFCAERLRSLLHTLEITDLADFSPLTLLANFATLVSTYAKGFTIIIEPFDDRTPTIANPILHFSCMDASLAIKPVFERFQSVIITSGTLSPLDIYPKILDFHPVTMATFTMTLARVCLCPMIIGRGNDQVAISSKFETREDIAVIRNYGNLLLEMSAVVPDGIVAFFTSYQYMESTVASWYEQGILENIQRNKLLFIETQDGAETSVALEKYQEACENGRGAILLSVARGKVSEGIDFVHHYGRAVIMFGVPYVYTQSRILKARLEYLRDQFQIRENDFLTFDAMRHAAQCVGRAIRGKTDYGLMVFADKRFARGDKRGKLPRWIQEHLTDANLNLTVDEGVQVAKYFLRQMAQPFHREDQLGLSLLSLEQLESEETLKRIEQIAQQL
Conditions: read-out: Kd apparent; k-562, colo 205, sk-n-be(2) and mv-4-11.

The target in assay [7] is Mitogen-activated protein kinase kinase kinase kinase 1 (Homo sapiens, UniProt Q92918).
The target in assay [8] is Receptor-interacting serine/threonine-protein kinase 3 (Homo sapiens, UniProt Q9Y572).
Also: in the data inactive means no Kd found up to 30 µM.

ATP-dependent RNA helicase DDX3X, sequence (O00571 whole entry): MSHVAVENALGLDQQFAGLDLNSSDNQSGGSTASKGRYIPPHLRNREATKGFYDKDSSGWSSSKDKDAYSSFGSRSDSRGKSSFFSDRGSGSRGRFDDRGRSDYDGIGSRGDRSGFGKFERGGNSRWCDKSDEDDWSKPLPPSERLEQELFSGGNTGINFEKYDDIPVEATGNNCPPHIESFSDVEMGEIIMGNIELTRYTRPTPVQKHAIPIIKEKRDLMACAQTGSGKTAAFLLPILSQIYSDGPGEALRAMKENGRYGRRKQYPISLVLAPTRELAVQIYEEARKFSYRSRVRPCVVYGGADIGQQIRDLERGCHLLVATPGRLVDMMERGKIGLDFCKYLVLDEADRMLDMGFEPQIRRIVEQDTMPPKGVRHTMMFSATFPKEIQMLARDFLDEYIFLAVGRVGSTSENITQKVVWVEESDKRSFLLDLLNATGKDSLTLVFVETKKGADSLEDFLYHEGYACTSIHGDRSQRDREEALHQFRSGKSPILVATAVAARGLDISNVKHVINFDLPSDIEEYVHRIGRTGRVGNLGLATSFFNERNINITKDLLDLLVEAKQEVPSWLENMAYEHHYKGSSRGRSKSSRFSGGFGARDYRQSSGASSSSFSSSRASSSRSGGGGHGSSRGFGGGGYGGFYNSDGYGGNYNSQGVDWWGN
Mitogen-activated protein kinase kinase kinase kinase 1, sequence (Q92918 whole entry): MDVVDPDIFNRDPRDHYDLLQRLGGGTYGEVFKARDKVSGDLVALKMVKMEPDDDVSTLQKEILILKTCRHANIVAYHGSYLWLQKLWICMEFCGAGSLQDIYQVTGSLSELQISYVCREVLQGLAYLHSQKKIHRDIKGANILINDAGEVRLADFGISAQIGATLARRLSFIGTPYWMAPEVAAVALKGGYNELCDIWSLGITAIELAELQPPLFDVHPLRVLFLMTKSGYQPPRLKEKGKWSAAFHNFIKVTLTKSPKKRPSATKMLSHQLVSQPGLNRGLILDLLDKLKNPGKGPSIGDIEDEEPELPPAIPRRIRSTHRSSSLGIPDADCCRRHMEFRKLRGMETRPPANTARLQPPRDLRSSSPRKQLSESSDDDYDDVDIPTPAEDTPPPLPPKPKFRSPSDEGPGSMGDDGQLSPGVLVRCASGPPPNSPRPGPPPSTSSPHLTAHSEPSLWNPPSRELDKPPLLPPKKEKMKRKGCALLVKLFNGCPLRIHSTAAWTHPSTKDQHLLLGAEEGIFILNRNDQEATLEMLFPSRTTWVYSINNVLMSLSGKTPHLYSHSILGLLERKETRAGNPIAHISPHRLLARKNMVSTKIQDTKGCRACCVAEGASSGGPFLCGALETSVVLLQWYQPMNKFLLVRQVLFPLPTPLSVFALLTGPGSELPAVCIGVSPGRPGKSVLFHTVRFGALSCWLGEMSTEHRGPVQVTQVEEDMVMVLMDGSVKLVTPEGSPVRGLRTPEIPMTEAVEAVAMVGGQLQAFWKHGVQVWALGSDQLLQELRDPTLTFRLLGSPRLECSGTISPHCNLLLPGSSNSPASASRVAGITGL
Casein kinase I isoform gamma-1, sequence (Q9HCP0 whole entry, canonical isoform): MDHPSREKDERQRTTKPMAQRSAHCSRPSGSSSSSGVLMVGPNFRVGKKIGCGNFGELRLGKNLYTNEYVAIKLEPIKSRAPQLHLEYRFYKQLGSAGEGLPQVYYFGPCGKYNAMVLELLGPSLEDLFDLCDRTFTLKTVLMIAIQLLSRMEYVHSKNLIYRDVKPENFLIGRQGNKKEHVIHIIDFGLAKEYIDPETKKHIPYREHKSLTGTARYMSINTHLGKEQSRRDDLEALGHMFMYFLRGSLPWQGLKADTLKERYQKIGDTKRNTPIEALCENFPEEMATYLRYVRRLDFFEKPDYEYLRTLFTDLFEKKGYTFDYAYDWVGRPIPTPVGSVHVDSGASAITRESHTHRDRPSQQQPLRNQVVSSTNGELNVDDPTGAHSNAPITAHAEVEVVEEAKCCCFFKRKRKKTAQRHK
Receptor-interacting serine/threonine-protein kinase 3, sequence (Q9Y572 whole entry): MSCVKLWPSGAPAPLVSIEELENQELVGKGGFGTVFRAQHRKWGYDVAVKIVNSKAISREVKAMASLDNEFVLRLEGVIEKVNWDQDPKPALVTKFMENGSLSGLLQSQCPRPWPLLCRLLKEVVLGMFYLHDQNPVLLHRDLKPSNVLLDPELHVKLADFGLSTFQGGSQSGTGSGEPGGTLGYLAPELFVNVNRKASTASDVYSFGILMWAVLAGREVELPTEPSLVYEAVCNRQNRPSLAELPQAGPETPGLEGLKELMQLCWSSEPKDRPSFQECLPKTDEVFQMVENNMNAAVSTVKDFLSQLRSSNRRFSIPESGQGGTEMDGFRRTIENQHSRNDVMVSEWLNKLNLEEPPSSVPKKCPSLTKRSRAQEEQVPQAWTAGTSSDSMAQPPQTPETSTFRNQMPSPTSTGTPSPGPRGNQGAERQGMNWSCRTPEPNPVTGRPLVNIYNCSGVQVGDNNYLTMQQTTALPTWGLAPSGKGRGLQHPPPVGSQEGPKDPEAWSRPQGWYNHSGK

`CNC(=O)c1ccc(C)c(-n2c(C)cc(OCc3ccc(F)cc3F)c(Br)c2=O)c1` [PH-797804]: the Kd in assay [1], in assay [2], in assay [3], in assay [4], in assay [5] and in assay [6] was > 30 µM (inactive) throughout. Also, the Kd in assay [7] and in assay [8] was > 30 µM (inactive) each time.
In the case of `COc1cc2nccc(Oc3ccc(NC(=O)Nc4cc(C)on4)c(Cl)c3)c2cc1OC` [TIVOZANIB], the Kd in assay [1], in assay [2], in assay [3], in assay [4], in assay [5] and in assay [6] was > 30 µM (inactive) throughout. Besides, the Kd was > 30 µM (inactive) in assay [7] and 1.35 µM (active) in assay [8].
Consider `N[C@@H]1CCCN(c2c(/C=C3\SC(=O)NC3=O)cccc2-c2ccccc2)C1`, for which the Kd in assay [1], in assay [2], in assay [3], in assay [4], in assay [5] and in assay [6] was > 30 µM (inactive) in each case. Moreover, the Kd in assay [7] and in assay [8] was > 30 µM (inactive) in each case.
For the compound `COc1cc(N2CCC(N3CCN(C)CC3)CC2)ccc1Nc1ncnc(Nc2ccccc2S(=O)(=O)C(C)C)n1` [ASP-3026], the Kd in assay [1] is > 30 µM (inactive); in assay [2], > 30 µM (inactive); in assay [3] it was 0.033 µM (active); in assay [4], > 30 µM (inactive); in assay [5], > 30 µM (inactive); in assay [6] it was > 30 µM (inactive). Further, the Kd in assay [7] and in assay [8] was > 30 µM (inactive) in each case.
`Cc1cc([C@@H](C)Nc2ccccc2C(=O)O)c2nc(N3CCOCC3)cc(=O)n2c1` [AZD-6482]: the Kd in assay [1], in assay [2], in assay [3], in assay [4], in assay [5] and in assay [6] was > 30 µM (inactive) each time. Moreover, the Kd in assay [7] and in assay [8] was > 30 µM (inactive) throughout.
Take `CN1CCC(CNc2ccc3ncc(-c4cccc(OC(F)(F)F)c4)n3n2)CC1` [SGI-1776]: the Kd in assay [1], in assay [2], in assay [3], in assay [4], in assay [5] and in assay [6] was > 30 µM (inactive) throughout. The Kd in assay [7] and in assay [8] was > 30 µM (inactive) throughout.
`CC(C)Nc1cc(-c2c[nH]c(C(=O)N[C@H](CO)c3cccc(Cl)c3)c2)c(Cl)cn1` [ULIXERTINIB]: the Kd in assay [1], in assay [2], in assay [3], in assay [4], in assay [5] and in assay [6] was > 30 µM (inactive) in each case. For the same compound, the Kd in assay [7] and in assay [8] was > 30 µM (inactive) each time.
For `O=c1sn(-c2cccc3ccccc23)c(=O)n1Cc1ccccc1` [TIDEGLUSIB], the Kd in assay [1], in assay [2], in assay [3], in assay [4], in assay [5] and in assay [6] was > 30 µM (inactive) throughout. Further, the Kd in assay [7] and in assay [8] was > 30 µM (inactive) throughout.
Turning to `Cc1ccc(-n2nc(C(C)(C)C)cc2NC(=O)NCc2cc(F)ccc2Oc2ccc3c(cnn3CCO)c2)cc1` [PEXMETINIB], the Kd in assay [1] was > 30 µM (inactive); in assay [2] it was > 30 µM (inactive); in assay [3], 1.66 µM (active); in assay [4], > 30 µM (inactive); in assay [5] it was > 30 µM (inactive); in assay [6], > 30 µM (inactive). The Kd is > 30 µM (inactive) in assay [7] and 0.662 µM (active) in assay [8].
With `CCN1CCN(Cc2ccc(-c3cc4c(N[C@H](C)c5ccccc5)ncnc4[nH]3)cc2)CC1` [AEE-788], the Kd in assay [1], in assay [2], in assay [3], in assay [4], in assay [5] and in assay [6] was > 30 µM (inactive) each time. Besides, the Kd in assay [7] and in assay [8] was > 30 µM (inactive) each time.
Take `Cc1ccc(NC(=O)c2ccc(CN3CC[C@H](N(C)C)C3)c(C(F)(F)F)c2)cc1Nc1nccc(-c2cncnc2)n1` [BAFETINIB]: the Kd in assay [1], in assay [2], in assay [3], in assay [4], in assay [5] and in assay [6] was > 30 µM (inactive) in each case. Moreover, the Kd in assay [7] is > 30 µM (inactive); in assay [8], 0.506 µM (active).
In the case of `CN(C)C(=O)c1cc2cnc(Nc3ccc(N4CCNCC4)cn3)nc2n1C1CCCC1` [RIBOCICLIB], the Kd in assay [1], in assay [2], in assay [3], in assay [4], in assay [5] and in assay [6] was > 30 µM (inactive) throughout. For the same compound, the Kd in assay [7] and in assay [8] was > 30 µM (inactive) each time.
As for `COCCNCc1ccc(-c2cc3nccc(Oc4ccc(NC(=S)NC(=O)Cc5ccc(F)cc5)cc4F)c3s2)nc1` [GLESATINIB], the Kd in assay [1] is > 30 µM (inactive); in assay [2] it was > 30 µM (inactive); in assay [3] it was 1.49 µM (active); in assay [4], > 30 µM (inactive); in assay [5], > 30 µM (inactive); in assay [6] it was > 30 µM (inactive). For the same compound, the Kd in assay [7] and in assay [8] was > 30 µM (inactive) throughout.

(Values after ChEMBL document CHEMBL3991601, “The target landscape of clinical kinase drugs” (Science, 2017).)
